Laboratory results reported in patent US12049439B2 (OrsoBio, Inc., priority 2018, dated 2024).

What follows are molecules tested on PC-3 cells (assay: PC-3 Oxygen Rate Consumption (OCR) Assay). Conditions: Homo sapiens, 0.05 h, medium with 2% FBS, OCR at 3-min post-injection normalized to % increase over DMSO-treated cells, concentration for half-maximal OCR increase, read-out: EC50-PC3-OCR-FBS-3min.
Format: cell-based
Protocol: PC-3 Oxygen Rate Consumption (OCR) Assay Procedure:
One day before the assay, PC-3 cells were seeded at 2.5×10^4 cells/160 μL/well in a 96-well XFe96 cell plate, part of a FlexPak containing a cell plate and a cartridge (Agilent, Sunnyvale, CA). The cells were incubated overnight at 37° C. in a 5% CO2 and 90% humidity incubator with F12K culture medium (ThermoFisher Scientific/Invitrogen, Grand Island, NY) containing 10% FBS and 1% penicillin/streptomycin. On the day of the assay, the cells were washed twice with 300 µL/well Medium A [XF assay medium (Agilent) supplemented 10 mM glucose, 1 mM pyruvate, and 2% fetal bovine serum (FBS)], and incubated with 175 µL/well Media A for 1 hr in a 37° C., non-CO2 incubator prior to the measurement of cellular respiration. Compounds of interests were prepared in 1:2 serial dilutions with 100% DMSO and then further diluted into 8× working stock with Media A prior to being loaded to Injection Port A on a XFe96 Analyzer (Agilent). Six replicates were used for each treatment. The cartridge was calibrated in the XFe96 Analyzer 30 minute prior to the measurement of cellular respiration. Basal levels of OCR were measured three times, each using a “3-minute mixing/3-minute measurement” program. The compound effect was measured immediately after compound injection from Injection Port A, and OCR was monitored continuously 10 times, each time using a “1-minute mixing/2-minute measurement” program for a total of 30 minutes post compound injection. The level of OCR at 3-min post-injection was normalized to % increase over DMSO-treated cells. The concentration of compound required to reach the half-maximal OCR increase was defined as EC50 Table 2 contains PC3 OCR EC50 values for the compounds disclosed.

Question: For `CS(=O)(=O)c1ccc(S(=O)(=O)Nc2cc(C(F)(F)F)ccc2C(=O)NC23CC4CC(CC(C4)C2)C3)cc1` [Example 10, N-((3s,5s,7s)-adamantan-1-yl)-2-((4-(methylsulfonyl)phenyl)sulfonamido)-4-(trifluoromethyl)benzamide], which EC50 is on record?
Answer: 1.22 µM

Question: How did the EC50 turn out when `CS(=O)(=O)Nc1ccc(S(F)(F)(F)(F)F)cc1C(=O)NC1CC2CCC(C1)O2` (stereo not shown) [Example 184, N-(8-oxabicyclo[3.2.1]octan-3-yl)-2-(methylsulfonamido)-5-(pentafluoro-λ^6-sulfanyl)benzamide] was run?
Answer: 48.1 µM

Question: `CS(=O)(=O)Nc1cc(F)ccc1C(=O)NC12CC(C(F)(F)F)(C1)C2` [Example 1, 4-fluoro-2-(methylsulfonamido)-N-(3-(trifluoromethyl)bicyclo[1.1.1]pentan-1-yl)benzamide] was tested. Which EC50 did it give?
Answer: 13.1 µM

Question: How did the EC50 turn out when `N#CC12CCC(NC(=O)c3cc(C(F)(F)F)ccc3NS(=O)(=O)N3CCCC3)(CC1)CC2` [Example 130, N-(4-cyanobicyclo[2.2.2]octan-1-yl)-2-(pyrrolidine-1-sulfonamido)-5-(trifluoromethyl)benzamide] was run?
Answer: 4.68 µM

Question: How did the EC50 turn out when `CS(=O)(=O)Nc1cc(C#N)ccc1C(=O)NC12CC(C(F)(F)F)(C1)C2` [Example 148, 4-cyano-2-(methylsulfonamido)-N-(3-(trifluoromethyl)bicyclo[1.1.1]pentan-1-yl)benzamide] was run?
Answer: 17.7 µM

Question: For `CN(C)S(=O)(=O)c1ccc(S(=O)(=O)Nc2cc(C(F)(F)F)ccc2C(=O)NC23CC(c4ccccc4)(C2)C3)cc1` [Example 30, 2-((4-(N,N-dimethylsulfamoyl)phenyl)sulfonamido)-N-(3-phenylbicyclo[1.1.1]pentan-1-yl)-4-(trifluoromethyl)benzamide], which EC50 is on record?
Answer: 1.11 µM

Question: With `CS(=O)(=O)Nc1ccc(C(F)(F)F)cc1C(=O)NC12CCC(C#N)(CC1)CC2` [Example 105, N-(4-cyanobicyclo[2.2.2]octan-1-yl)-2-(methylsulfonamido)-5-(trifluoromethyl)benzamide] as the molecule, how does the EC50 read?
Answer: 22.9 µM

Question: With `CC(C)(C)S(=O)(=O)Nc1ccc(C(F)(F)F)cc1C(=O)NC12CC(C(F)(F)F)(C1)C2` [Example 157, 2-((1,1-dimethylethyl)sulfonamido)-5-(trifluoromethyl)-N-(3-(trifluoromethyl)bicyclo[1.1.1]pentan-1-yl)benzamide] as the molecule, how does the EC50 read?
Answer: 0.352 µM

Question: How did the EC50 turn out when `CS(=O)(=O)N1C2CCC1CC(NC(=O)c1ccc(Cl)cc1NS(=O)(=O)CCC(F)(F)F)C2` (stereo not shown) [Example 218, 4-chloro-N-(8-(methylsulfonyl)-8-azabicyclo[3.2.1]octan-3-yl)-2-((3,3,3-trifluoropropyl)sulfonamido)benzamide] was run?
Answer: 53.4 µM

Question: How did the EC50 turn out when `Cc1ccc(C(=O)NC23CC(C(F)(F)F)(C2)C3)c(NS(=O)(=O)C(C)C)c1` [Example 61, 4-methyl-2-((1-methylethyl)sulfonamido)-N-(3-(trifluoromethyl)bicyclo[1.1.1]pentan-1-yl)benzamide] was run?
Answer: ≥ 100 µM

Question: Which EC50 does the source give for `O=C(NC12CC(C(F)(F)F)(C1)C2)c1ccc(C(F)(F)F)cc1NS(=O)(=O)c1cccnc1` [Example 59, 2-(pyridine-3-sulfonamido)-4-(trifluoromethyl)-N-(3-(trifluoromethyl)bicyclo[1.1.1]pentan-1-yl)benzamide] here?
Answer: 1.84 µM

Question: Which EC50 does the source give for `CC(C)(C)P(=O)(c1ccc(S(=O)(=O)Nc2cc(C(F)(F)F)ccc2C(=O)NC23CCC(C#N)(CC2)CC3)cc1)C(C)(C)C` [Example 186, N-(4-cyanobicyclo[2.2.2]octan-1-yl)-2-((4-(di-tert-butylphosphoryl)phenyl)sulfonamido)-4-(trifluoromethyl)benzamide] here?
Answer: 12.6 µM

Question: Which EC50 does the source give for `Cc1ncc(S(=O)(=O)Nc2cc(C(F)(F)F)ccc2C(=O)NC23CC(C(F)(F)F)(C2)C3)s1` [Example 62, 2-((2-methylthiazole)-5-sulfonamido)-4-(trifluoromethyl)-N-(3-(trifluoromethyl)bicyclo[1.1.1]pentan-1-yl)benzamide] here?
Answer: 1.53 µM

Question: `CC(C)(C)S(=O)(=O)Nc1ccc(Br)cc1C(=O)NC12CC(C(F)(F)F)(C1)C2` [Example 95, 5-bromo-2-((1,1-dimethylethyl)sulfonamido)-N-(3-(trifluoromethyl)bicyclo[1.1.1]pentan-1-yl)benzamide] was tested. Which EC50 did it give?
Answer: 1.12 µM

Question: For `CC(C)(C)S(=O)(=O)Nc1ccc(Cl)cc1C(=O)NC12CC(C(F)(F)F)(C1)C2` [Example 84, 5-chloro-2-((1,1-dimethylethyl)sulfonamido)-N-(3-(trifluoromethyl)bicyclo[1.1.1]pentan-1-yl)benzamide], which EC50 is on record?
Answer: 1.04 µM

Question: Which EC50 does the source give for `CC(C)S(=O)(=O)Nc1ccc(C(F)(F)F)cc1C(=O)NC12CC(C1)C2` [Example 71, N-(bicyclo[1.1.1]pentan-1-yl)-2-((1-methylethyl)sulfonamido)-5-(trifluoromethyl)benzamide] here?
Answer: 6.67 µM

Question: How did the EC50 turn out when `CCS(=O)(=O)Nc1cc(C(F)(F)F)ccc1C(=O)NC12CC(C(F)(F)F)(C1)C2` [Example 116, 2-(ethylsulfonamido)-4-(trifluoromethyl)-N-(3-(trifluoromethyl)bicyclo[1.1.1]pentan-1-yl)benzamide] was run?
Answer: 1.58 µM

Question: For `O=C(NC12CC(C1)C2)c1ccc(C(F)(F)F)cc1NS(=O)(=O)c1ccccc1` [Example 37, N-(bicyclo[1.1.1]pentan-1-yl)-2-(phenylsulfonamido)-4-(trifluoromethyl)benzamide], which EC50 is on record?
Answer: 2.1 µM

Question: With `CS(=O)(=O)c1ccc(S(=O)(=O)Nc2cc(C(F)(F)F)ccc2C(=O)NC23CC(c4ccccc4)(C2)C3)cc1` [Example 11, 2-((4-(methylsulfonyl)phenyl)sulfonamido)-N-(3-phenylbicyclo[1.1.1]pentan-1-yl)-4-(trifluoromethyl)benzamide] as the molecule, how does the EC50 read?
Answer: 1.92 µM

Question: Which EC50 does the source give for `CN(C)S(=O)(=O)Nc1ccc(C(F)(F)F)cc1C(=O)NC12CC(C#N)(C1)C2` [Example 244, N-(3-cyanobicyclo[1.1.1]pentan-1-yl)-2-((N,N-dimethylsulfamoyl)amino)-5-(trifluoromethyl)benzamide] here?
Answer: 7.65 µM

Question: `CC(C)(C)c1ccc(S(=O)(=O)Nc2cc(S(C)(=O)=O)ccc2C(=O)NC23CC(C(F)(F)F)(C2)C3)cc1` [Example 16, 2-((4-(tert-butyl)phenyl)sulfonamido)-4-(methylsulfonyl)-N-(3-(trifluoromethyl)bicyclo[1.1.1]pentan-1-yl)benzamide] was tested. Which EC50 did it give?
Answer: 5.55 µM

Question: Which EC50 does the source give for `CSCCOc1ccc(S(=O)(=O)Nc2cc(C(F)(F)F)ccc2C(=O)NC23CC(C(F)(F)F)(C2)C3)cc1` [Example 113, 2-((4-(2-(methylthio)ethoxy)phenyl)sulfonamido)-4-(trifluoromethyl)-N-(3-(trifluoromethyl)bicyclo[1.1.1]pentan-1-yl)benzamide] here?
Answer: 0.697 µM

Question: How did the EC50 turn out when `CS(=O)(=O)Nc1cc(Br)ccc1C(=O)NC12CC(C(F)(F)F)(C1)C2` [Example 48, 4-bromo-2-(methylsulfonamido)-N-(3-(trifluoromethyl)bicyclo[1.1.1]pentan-1-yl)benzamide] was run?
Answer: 5.81 µM

Question: `CC(C)(C)S(=O)(=O)c1ccc(S(=O)(=O)Nc2cc(F)ccc2C(=O)NC23CC(C#N)(C2)C3)cc1` [Example 153, 2-((4-(tert-butylsulfonyl)phenyl)sulfonamido)-N-(3-cyanobicyclo[1.1.1]pentan-1-yl)-4-fluorobenzamide] was tested. Which EC50 did it give?
Answer: 10.7 µM

Question: Which EC50 does the source give for `O=C(NC12CCC(C(F)(F)F)(CC1)CC2)c1cc(SC(F)(F)F)ccc1NS(=O)(=O)N1CCS(=O)(=O)CC1` [Example 237, 2-((1,1-dioxidothiomorpholine)-4-sulfonamido)-N-(4-(trifluoromethyl)bicyclo[2.2.2]octan-1-yl)-5-((trifluoromethyl)thio)benzamide] here?
Answer: 7.73 µM

Question: Which EC50 does the source give for `N#CC12CCC(NC(=O)c3cc(Cl)ccc3NS(=O)(=O)CCC(F)(F)F)(CC1)CC2` [Example 221, 5-chloro-N-(4-cyanobicyclo[2.2.2]octan-1-yl)-2-((3,3,3-trifluoropropyl)sulfonamido)benzamide] here?
Answer: 1.09 µM

Question: How did the EC50 turn out when `CS(=O)(=O)Nc1ccc(Cl)cc1C(=O)NC12CCC(C#N)(CC1)CC2` [Example 213, 5-chloro-N-(4-cyanobicyclo[2.2.2]octan-1-yl)-2-(methylsulfonamido)benzamide] was run?
Answer: 81.9 µM

Question: `CC(C)S(=O)(=O)Nc1cc(C(F)(F)F)ccc1C(=O)NC12CC(C#N)(C1)C2` [Example 60, N-(3-cyanobicyclo[1.1.1]pentan-1-yl)-2-((1-methylethyl)sulfonamido)-4-(trifluoromethyl)benzamide] was tested. Which EC50 did it give?
Answer: 6.22 µM

Question: Which EC50 does the source give for `N#CC12CCC(NC(=O)c3cc(C(F)(F)F)ccc3NS(=O)(=O)N3CCC3)(CC1)CC2` [Example 179, 2-(azetidine-1-sulfonamido)-N-(4-cyanobicyclo[2.2.2]octan-1-yl)-5-(trifluoromethyl)benzamide] here?
Answer: 8.84 µM

Question: For `CS(=O)(=O)c1cccc(S(=O)(=O)Nc2cc(F)ccc2C(=O)NC23CC(C(F)(F)F)(C2)C3)c1` [Example 22, 4-fluoro-2-((3-(methylsulfonyl)phenyl)sulfonamido)-N-(3-(trifluoromethyl)bicyclo[1.1.1]pentan-1-yl)benzamide], which EC50 is on record?
Answer: 9.97 µM

Question: With `Cc1ncsc1CCS(=O)(=O)Nc1ccc(C(F)(F)F)cc1C(=O)NC12CCC(C#N)(CC1)CC2` [Example 200, N-(4-cyanobicyclo[2.2.2]octan-1-yl)-2-((2-(4-methylthiazol-5-yl)ethyl)sulfonamido)-5-(trifluoromethyl)benzamide] as the molecule, how does the EC50 read?
Answer: 5.09 µM
